Source: patent publication US20250000864A1, “GONADOTROPIN-RELEASING HORMONE ANTAGONIST, AND PREPARATION METHOD THEREFOR AND USE THEREOF” (SHANDONG LUYE PHARMACEUTICAL CO., LTD., priority 2021, published 2025)
Like-named read-outs stand apart in the source and are kept apart here.

Experiments:
[1] = Metabolic stability in rat liver microsomes; assay type: in vitro ADME, SD rat; conditions: for Residual content at 60 min / CLint scaled / half-life / microsomal CLint / CLint(liver): Rat liver microsomes; for Residual content at 60 min: NADPH, 37° C.; for CLint scaled / half-life / microsomal CLint: Sprague-Dawley (SD); for microsomal CLint: read-out: CLint(mic)
Procedure: (§1) Liver Microsome: Rat Liver Microsome and Human Liver Microsome Reagent: NADPH, Roche Diagnostics Gmbh; ACN, Merck Chemical; Tolbutamide, Sigma. Instrument: water purification equipment, Millipore; electronic balance, METTLER TOLEDO; high-speed benchtop centrifuge, Thermo; water bath thermostatic oscillator, Shanghai Yiheng Technical Co., Ltd.; vortex oscillator, Thermo; LC-MS/MS, AB SCIEX. Method: the metabolic stability of test substances was evaluated by using SD rat and human liver microsomes. The test substances were incubated with liver microsomes from different species by using NADPH under a water bath at 37° C. A cold acetonitrile solution containing a Tolbutamide internal standard substance was added at a specified time point to terminate the reaction. The samples were pre-treated and then subjected to semi-quantitative analysis by LC-MS/MS. The retention times of the analytes and Tolbutamide internal standard, the acquisition of chromatograms, and the integration of chromatograms were processed using software Analyst (A Sciex, Framingham, Massachusetts, USA). The in vitro elimination rate constant Ke of the samples was obtained by converting the ratio of the peak area of the samples to the peak area of the internal standard into the residual percentage, and the in vitro clearance rate and the half-life of the test samples were calculated.

[2] = Caco-2 two-way permeability and efflux; assay type: in vitro ADME; conditions: human; for Papp A→B at 120 min / Papp B→A at 120 min: Caco-2, 120 min incubation
Procedure: Instrument: water purification equipment, ELGA LabWate; biosafety cabinet, NUAIRE; thermostatic CO2 incubator, Thermo; microplate reader, PerkinElmer; LC-MS/MS, AB SCIEX.
Method: A Caco-2 monolayer cell model was used to determine the two-way permeability of the test substances and evaluate whether the test substances were transported by the efflux of a transporter. In the experiment, Caco-2 cells were seeded into a 96-well cell culture plate and cultured for 28 consecutive days for transport assay. The test substances were each administered on two sides. After being incubated for 120 min, the samples at the apical end A, at the basal end B, and with cell lysis were collected and quantitatively determined for the content of the test substances by using a liquid chromatography-tandem mass spectrometry (LC/MS/MS) method. The apparent permeability coefficient (Papp) in the direction from the apical end to the basal end (A-B) and in the direction from the basal end to the apical end (B-A) and the efflux ratio were calculated from the concentrations of the test substances.

[3] = Metabolic stability in human liver microsomes; assay type: in vitro ADME; conditions: for Residual content at 60 min: NADPH, 37° C.; for microsomal CLint: read-out: CLint(mic)
Procedure: as §1

[4] = Pharmacokinetics in SD rats (i.v. and i.g.); assay type: in vivo; conditions: for bioavailability: read-out: F (absolute bioavailability)
Procedure: Instrument: water purification equipment, Millipore; electronic balance, METTLER TOLEDO; high-speed benchtop centrifuge, Thermo; water bath thermostatic oscillator, Shanghai Yiheng Technical Co., Ltd.; vortex oscillator, Thermo; LC-MS/MS, AB SCIEX.
Method: all compounds were formulated in DMSO and 20% solutol. In the pharmacokinetic experiment, the administration dose for the intravenous group (i.v) was 1 mg/kg, and the administration dose for the intragastric group (i.g) was 12 mg/kg, each group containing 3 rats. Blood was collected from the orbit of the rats before (0 h) the administration and at set time points after administration. In the tissue distribution experiment, the rats were subjected to intragastric administration at a dose of 12 mg/kg. […] The […] in a heparinized EP tube and centrifuged at 13,500 rpm for 10 min to isolate the plasma. The pituitary was homogenized with water in a certain proportion. The plasma and pituitary homogenates were pre-treated and then analyzed by LC-MS/MS to determine the concentration of the test substances in the plasma and the pituitary. The plasma drug concentration data were processed in a non-compartmental model using WinNonlin™ Version 6.3 (Pharsight, Mountain View, CA) pharmacokinetic software.

human GnRHR = human GnRHR (Homo sapiens (Human), UniProt P30968); experiment: In vitro antagonistic activity screening (FLIPR calcium fluorescence, Leuprolide acetate stimulation); assay type: cell-based; conditions: HEK293 cells stably expressing human GnRHR
Procedure: Cell: HEK293 cells stably expressing human GnRHR (WuXi AppTec (Shanghai) Co., Ltd.) Equipment: 384-well plate, Greiner; Vi-cell XR Cell Viability Analyzer, Beckman Coulter; incubator, Thermo.
Method: HEK293 cells stably expressing human GnRHR were seeded into a 384-well plate at a density of 20,000/well. Fluo-4 Direct™ No-wash Loading Buffer (Invitrogen) was added to each well the next day, and then the plate was put back into an incubator, incubated at 37° C. for 50 min, and then incubated at room temperature for 10 min. Test compounds were formulated in DMSO. […] Fluorescence values were determined using a FLIPR Tetra high throughput real-time fluorescence detection and assay system. Then 10 μL of Leuprolide acetate was added, and fluorescence values were determined. IC50 and IC90 of the compounds were calculated using Prism.

[5] = molecular target: human hERG potassium channel (Homo sapiens (Human), UniProt Q12809); experiment: hERG test (QPatch automated patch clamp, CHO cells); assay type: cell-based
Procedure: Cell: CHO cells stably expressing a human hERG potassium channel (WuXi AppTec (Shanghai) Co., Ltd.) Reagent: physiological solution (pH=7.4): 140 mM NaCl, 4 mM KCl, 2 mM CaCl2), 1 mM MgCl2, 5 mM Glucose, 10 mM HEPES, Osmolarity: about 298 mOsm; external solution (pH=7.4): 80 mM NaCl, 4 mM KCl, 2 mM CaCl2), 1 mM MgCl2, 5 mM Glucose, 60 mM NMDG, 10 mM HEPES, Osmolarity: about 289 mOsm; internal solution (pH=7.4): 10 mM NaCl, 10 mM KCl, 110 mM KF, 10 mM HEPES, EGTA: […], Osmolarity: about 280 mOsm.
Equipment: QPatch high-throughput automated patch clamp system, Sophion.
Method: CHO cells stably expressing a human hERG potassium channel were digested with TrypLE and resuspended in a physiological solution for later use. The single-cell high-impedance sealing and whole-cell mode formation processes were automatically completed by Qpatch. The clamping voltage for the cells was −80 mV. Then a voltage of −50 mV was applied for 80 ms to subtract (current) leakage, and a voltage of +20 mV was applied for 4800 ms to open the hERG channel. The voltage was then reduced to −50 mV and maintained for 5000 ms. This process was used for data collection and analysis. Finally, the voltage was returned to the clamping voltage (−80 mV, 1000 ms). This process was repeated every 20,000 ms. 40 μL of solvent control (external solution+DMSO) was added first, and the test was performed for […] to collect baseline data. Then, 40 μL of each of the test compounds was added at various concentrations, and the test was performed for no less than […]. The compounds were each dissolved in DMSO, with test concentrations being 0.30 μM, 1.00 μM, 3.00 μM, 10.00 μM, and 30.00 μM. The IC50 data for the hERG test were obtained by analyzing using DataControl, Excel2013, and Prism.

[6] = male, Sprague-Dawley (SD), rat, plasma, iv, i.v 1 mg/kg
[7] = male, Sprague-Dawley (SD), rat, plasma, po, i.g 12 mg/kg
[8] = male, Sprague-Dawley (SD), rat, plasma, po, i.g 12 mg/kg vs i.v 1 mg/kg
[9] = male, rat, plasma, intravenous, i.v 1 mg/kg
[10] = male, rat, plasma, oral, i.g 12 mg/kg

human GnRHR, sequence (P30968 whole entry): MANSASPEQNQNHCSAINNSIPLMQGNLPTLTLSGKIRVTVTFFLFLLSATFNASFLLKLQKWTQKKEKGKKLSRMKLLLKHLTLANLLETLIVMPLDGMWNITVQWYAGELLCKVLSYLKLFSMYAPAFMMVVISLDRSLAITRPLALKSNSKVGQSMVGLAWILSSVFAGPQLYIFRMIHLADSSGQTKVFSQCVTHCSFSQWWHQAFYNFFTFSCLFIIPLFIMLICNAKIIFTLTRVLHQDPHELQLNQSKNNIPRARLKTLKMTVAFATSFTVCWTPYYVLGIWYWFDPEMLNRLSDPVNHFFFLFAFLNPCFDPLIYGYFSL
human hERG potassium channel, sequence (Q12809 whole entry): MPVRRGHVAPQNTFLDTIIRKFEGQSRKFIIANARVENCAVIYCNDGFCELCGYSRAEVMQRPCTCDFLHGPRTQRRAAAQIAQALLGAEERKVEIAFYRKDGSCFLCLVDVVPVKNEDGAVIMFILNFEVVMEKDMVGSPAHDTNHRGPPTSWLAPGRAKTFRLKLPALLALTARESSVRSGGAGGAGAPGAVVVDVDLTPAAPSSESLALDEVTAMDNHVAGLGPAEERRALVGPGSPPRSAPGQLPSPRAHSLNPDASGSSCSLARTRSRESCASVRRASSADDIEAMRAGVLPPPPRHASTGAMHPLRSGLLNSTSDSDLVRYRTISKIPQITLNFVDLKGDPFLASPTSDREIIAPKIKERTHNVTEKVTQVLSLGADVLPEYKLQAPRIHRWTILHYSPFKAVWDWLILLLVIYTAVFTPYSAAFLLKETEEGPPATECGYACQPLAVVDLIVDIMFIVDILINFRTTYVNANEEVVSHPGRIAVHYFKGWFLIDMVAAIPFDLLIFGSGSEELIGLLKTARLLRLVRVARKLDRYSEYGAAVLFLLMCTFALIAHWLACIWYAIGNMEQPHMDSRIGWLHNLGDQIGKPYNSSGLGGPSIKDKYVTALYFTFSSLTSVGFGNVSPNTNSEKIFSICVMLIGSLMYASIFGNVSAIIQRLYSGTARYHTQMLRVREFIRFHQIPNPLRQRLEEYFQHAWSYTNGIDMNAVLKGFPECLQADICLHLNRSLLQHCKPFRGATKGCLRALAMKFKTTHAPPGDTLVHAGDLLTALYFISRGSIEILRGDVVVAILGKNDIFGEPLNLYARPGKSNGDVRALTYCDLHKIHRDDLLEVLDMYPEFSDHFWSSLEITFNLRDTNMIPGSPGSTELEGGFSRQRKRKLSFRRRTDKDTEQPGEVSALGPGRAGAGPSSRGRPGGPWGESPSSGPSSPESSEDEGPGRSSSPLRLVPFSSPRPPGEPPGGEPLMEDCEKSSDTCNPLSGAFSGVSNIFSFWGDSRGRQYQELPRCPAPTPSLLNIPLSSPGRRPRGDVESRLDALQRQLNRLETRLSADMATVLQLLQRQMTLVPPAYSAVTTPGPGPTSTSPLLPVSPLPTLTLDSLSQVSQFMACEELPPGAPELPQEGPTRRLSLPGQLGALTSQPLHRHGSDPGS

Row | SMILES | Residual content at 60 min [1] [%] | CLint scaled [1] [mL/min/kg] | half-life [1] [min] | microsomal CLint [1] [µL/min/mg] | Papp A→B at 120 min [2] [×10⁻⁶ cm/s] | Papp B→A at 120 min [2] [×10⁻⁶ cm/s] | CLint scaled [3] [mL/min/kg] | half-life [3] [min] | Residual content at 60 min [3] [%] | microsomal CLint [3] [µL/min/mg] | also measured
1 | CONC(=O)Nc1ccc(-c2sc3c(c2CN(C)C)c(=O)n(-c2cccc(OC(F)F)c2F)c(=O)n3Cc2c(F)cccc2F)cc1 [Compound 3] | 34.5 | 62.6 | 39.8 | 34.8 | 0.126 | 18 | 17.5 | 71.4 | 55.5 | 19.4 | AUC(0-t) [4, 6]: 271 ± 49 ng·h/mL; C0 [4, 6]: 198 ± 4 ng/mL; MRT last [4, 6]: 3.83 ± 0.63 h; half-life [4, 6]: 260 ± 60 min; AUC(0-t) [4, 7]: 596 ± 231 ng·h/mL; Cmax [4, 7]: 82.7 ± 10.1 ng/mL; MRT last [4, 7]: 7.3 ± 1.13 h; half-life [4, 7]: 247 min; bioavailability [4, 8]: 18.3%; Tmax ([4]; male, Sprague-Dawley (SD), rat, plasma, po, i.g 12 mg/kg, read-out: Tmax): 6 ± 2.83 h
2 | CONC(=O)Nc1ccc(-c2sc3c(c2CN(C)C)c(=O)n(-c2ccc(OC)nn2)c(=O)n3Cc2c(F)cccc2C(F)(F)F)cc1 [Compound 5] | 98.7 | < 13.5 | > 186 | < 7.5 | 0.011 | 4.58 | < 6.75 | > 186 | 89.0 | < 7.5 | 
3 | COc1ccc(-n2c(=O)c3c(CN(C)C)c(-c4ccc(NC(=O)NOCC(F)F)cc4)sc3n(Cc3c(F)cccc3F)c2=O)nn1 [Compound 7] | 47.0 |  | 55 | 25.2 | 0.0101 | 15.6 |  | 169 | 75.5 | 8.2 | CLint(liver) [1]: 45.4 mL/min/kg; CLint(liver) [3]: 7.38 mL/min/kg
4 | CONC(=O)Nc1ccc(-c2sc3c(c2CN(C)CCOC(F)(F)F)c(=O)n(-c2ccc(OC)nn2)c(=O)n3Cc2c(F)cccc2F)cc1 [Compound 1] |  |  |  |  |  |  |  |  |  |  | T1/2 ([4]; i.g 12 mg/kg): 4.86 ± 3.05 h; Tmax ([4]; i.g 12 mg/kg): 1.13 ± 0.63 h; F (absolute bioavailability) ([4]; i.g 12 mg/kg vs i.v 1 mg/kg): 44.7%; T1/2 ([4]; i.v 1 mg/kg): 2.79 ± 0.87 h; AUC(0-t) [4, 9]: 992 ± 226 ng·h/mL; C0 [4, 9]: 2830 ± 454 ng/mL; MRT last [4, 9]: 0.539 ± 0.041 h; AUC(0-t) [4, 10]: 5320 ± 1210 ng·h/mL; Cmax [4, 10]: 664 ± 123 ng/mL; MRT last [4, 10]: 6.02 ± 0.93 h
5 | CNc1ccc(-n2c(=O)c3c(CN(C)C)c(-c4ccc(NC(=O)NOC)cc4)sc3n(Cc3c(F)cccc3F)c2=O)nn1 [Compound 6] | 57.1 | 34.9 | 71.4 | 19.4 | 0.0504 | 0.504 | < 6.75 | > 186 | 95.9 | < 7.5 | 
6 | CONC(=O)Nc1ccc(-c2sc3c(c2CN(C)C)c(=O)n(-c2ccc(OC)nn2)c(=O)n3Cc2c(F)cccc2F)cc1 [Relugolix, reference compound] | 58.0 |  | 84.5 | 16.4 | 0.00716 | 13.8 |  | 239 | 86.4 | 5.8 | CLint(liver) [1]: 29.5 mL/min/kg; CLint(liver) [3]: 5.22 mL/min/kg; T1/2 ([4]; i.g 12 mg/kg): 3.88 ± 0.57 h; bioavailability [4, 8]: 5.74%
7 | CONC(=O)Nc1ccc(-c2oc3c(c2CN(C)C)c(=O)n(-c2ccc(OC)nn2)c(=O)n3Cc2c(F)cccc2F)cc1 [Compound 4] | 89.9 | < 13.5 | > 186 | < 7.5 | 0.0933 | 29.4 | < 6.75 | > 186 | 104 | < 7.5 | Clearance in the SD rat liver microsome (in words) ([1]; SD rat liver microsome): low clearance; efflux ratio at 120 min ([2]; Caco-2, read-out: Efflux ratio): 316; IC50 (human GnRHR; read-out: Functional IC50): 12 nM; IC90 (human GnRHR; read-out: Functional IC90): 92.3 nM; IC50 ([5]; CHO cells stably expressing human hERG potassium channel): 4.44 µM; Inhibitory activity on the human hERG potassium channel compared with Relugolix ([5]; in words, vs Relugolix): equal to or less than that of Relugolix
